Laboratory results as given in US20250066341A1 (CHIESI FARMACEUTICI S.P.A., priority 2021, published 2025).

What follows are molecules tested against T1, human recombinant LPA1 expressed in CHO cells (Homo sapiens, UniProt Q92633) (assay: FLIPR calcium mobilization assay, LPA1 antagonism in CHO-hLPA1 cells). Settings: inhibition of LPA EC80 Ca2+ response, 30 min pre-incubation, expressed as range of activity.
T1 construct: expressed in transfected cells; host or cells: CHO cells (CHO-hLPA1 cell line)
T1 sequence (Q92633 whole entry): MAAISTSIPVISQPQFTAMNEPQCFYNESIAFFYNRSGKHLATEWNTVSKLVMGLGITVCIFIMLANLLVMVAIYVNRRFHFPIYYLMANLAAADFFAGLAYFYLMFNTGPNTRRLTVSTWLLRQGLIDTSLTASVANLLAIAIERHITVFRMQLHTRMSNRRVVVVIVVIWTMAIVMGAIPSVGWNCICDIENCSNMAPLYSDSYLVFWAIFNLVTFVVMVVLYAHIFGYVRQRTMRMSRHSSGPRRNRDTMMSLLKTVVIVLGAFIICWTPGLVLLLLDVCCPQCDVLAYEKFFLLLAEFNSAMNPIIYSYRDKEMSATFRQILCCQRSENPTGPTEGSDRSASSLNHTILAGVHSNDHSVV
Assay type: cell-based
Experimental: The effectiveness of compounds of the present invention as LPA1 antagonist can be determined at the human recombinant LPA1 expressed in CHO cells, using a FLIPR assay in 384 well format.
CHO-hLPA1 cell lines are cultured in a humidified incubator at 5% C02 in DMEM/F-12 (1:1) MIXTURE with 2 mM Glutamax, supplemented with 10% of Foetal Bovine Serum, 1 mM Sodium Pyruvate, 11 mM Hepes and 1× Penicillin/Streptomycin. […] Serial dilutions (1:3 or 1:4, 11 points CRC) of compounds are performed in 100% DMSO at 200× the final concentration. […] The final concentration of DMSO in the assay will be 0.5% in each well. Medium is removed by aspiration and cells are then incubated with 30 μl of a loading solution containing 5 μM of the cytoplasmic Ca2+ indicator Cal-520 AM in Assay Buffer containing 2.5 mM probenecid for 30 min at 37° C. incubator (cell loading). The loaded cell plates are transferred into the FLIPR instrument and calcium responses are monitored during the on-line addition protocols. For testing of compounds, after the cell loading, 10 μl/well of 4× antagonists' solution was added onto the cells. After 30 min pre-incubation (at 37° C.), 10 μl/well of 5× concentrated LPA EC80 was added and Ca2+ mobilization responses was followed during the on-line addition protocol. Intracellular peak fluorescence values subtracted by baseline fluorescence are exported and analysed to determine IC50 values, respectively. The calcium response is expressed as percentage of the maximal inhibition of the EC80 agonist response.
The raw data (peak height expressed as relative fluorescence units) are normalized and transformed into “percent of inhibition”. Curve fitting and pIC50 (−LogIC50) estimations are carried out using a four-parameter logistic model using XLfit Software.

Row | Compound | IC50 [nM]
1 | Cc1nc(-c2onc(C)c2NS(=O)(=O)CCOc2ccc(F)cc2)ccc1NC(=O)[C@H]1CCCC[C@@H]1C(=O)O [Compound 25, (1S,2S)-2-((6-(4-((2-(4-fluorophenoxy)ethyl)sulfonamido)-3-methylisoxazol-5-yl)-2-methylpyridin-3-yl)carbamoyl)cyclohexane-1-carboxylic acid] | 50 to 250
2 | Cc1nc(-c2onc(C)c2NS(=O)(=O)CCc2ccccc2)ccc1NC(=O)[C@H]1CCCC[C@@H]1C(=O)O [Compound 23, (1S,2S)-2-((2-methyl-6-(3-methyl-4-((2-phenylethyl)sulfonamido)isoxazol-5-yl)pyridin-3-yl)carbamoyl)cyclohexane-1-carboxylic acid] | 50 to 250
3 | CCCN(C)C(=O)OCc1c(-c2ccc(OC[C@H]3CCCC[C@@H]3C(=O)O)c(C)n2)nnn1C [Compound 76, (1S,2S)-2-(((2-methyl-6-(1-methyl-5-(((methyl(propyl)carbamoyl)oxy)methyl)-1H-1,2,3-triazol-4-yl)pyridin-3-yl)oxy)methyl)cyclohexane-1-carboxylic acid] | 50 to 250
4 | CCOc1cncc(Nc2c(-c3ccc(OC[C@H]4CCCC[C@@H]4C(=O)O)c(C)n3)nnn2C)n1 [Compound 72, (1S,2S)-2-(((6-(5-((6-ethoxypyrazin-2-yl)amino)-1-methyl-1H-1,2,3-triazol-4-y1)-2-methylpyridin-3-yl)oxy)methyl)cyclohexane-1-carboxylic acid] | 50 to 250
5 | Cc1nc(-c2cnn(C)c2CNc2nccc(-c3ccccc3)n2)ccc1OC[C@H]1CCCC[C@@H]1C(=O)O [Compound 61, (1S,2S)-2-(((2-methyl-6-(1-methyl-5-(((4-phenylpyrimidin-2-yl)amino)methyl)-1H-pyrazol-4-yl)pyridin-3-yl)oxy)methyl)cyclohexane-1-carboxylic acid] | < 50
6 | CCOc1cncc(Nc2c(C)noc2-c2ccc(OC[C@H]3CCCC[C@@H]3C(=O)O)c(C)n2)n1 [Compound 51, (1S,2S)-2-(((6-(4-((6-ethoxypyrazin-2-yl)amino)-3-methylisoxazol-5-yl)-2-methylpyridin-3-yl)oxy)methyl)cyclohexane-1-carboxylic acid] | < 50
7 | Cc1nc(-c2onc(C)c2Nc2cncc(-c3ccccc3)n2)ccc1NC(=O)[C@H]1CCCC[C@@H]1C(=O)O [Compound 6, (1S,2S)-2-((2-methyl-6-(3-methyl-4-((6-phenylpyrazin-2-yl)amino)isoxazol-5-yl)pyridin-3-yl)carbamoyl)cyclohexane-1-carboxylic acid] | < 50
8 | Cc1nc(-c2onc(C)c2NS(=O)(=O)CC(C)c2ccccc2)ccc1NC(=O)[C@H]1CCCC[C@@H]1C(=O)O (mixture of isomers) [Compound 29, rac-(1S,2S)-2-((2-methyl-6-(3-methyl-4-((2-phenylpropyl)sulfonamido)isoxazol-5-yl)pyridin-3-yl)carbamoyl)cyclohexane-1-carboxylic acid] | < 50
9 | Cc1noc(-c2ccc(OC[C@H]3CCCC[C@@H]3C(=O)O)cn2)c1Nc1cncc(OCC(C)C)n1 [Compound 50, (1S,2S)-2-(((6-(4-((6-isobutoxypyrazin-2-yl)amino)-3-methylisoxazol-5-yl)pyridin-3-yl)oxy)methyl)cyclohexane-1-carboxylic acid] | < 50
10 | Cc1nc(-c2onc(C)c2CNc2nccc(-c3cccnc3)n2)ccc1NC(=O)[C@H]1CCCC[C@@H]1C(=O)O [Compound 38, (1S,2S)-2-((2-methyl-6-(3-methyl-4-(((4-(pyridin-3-yl)pyrimidin-2-yl)amino)methyl)isoxazol-5-yl)pyridin-3-yl)carbamoyl)cyclohexane-1-carboxylic acid] | < 50
11 | Cc1nc(-c2onc(C)c2Nc2cncc(CC(C)C)n2)ccc1NC(=O)[C@H]1CCCC[C@@H]1C(=O)O [Compound 12, (1S,2S)-2-((6-(4-((6-isobutylpyrazin-2-yl)amino)-3-methylisoxazol-5-yl)-2-methylpyridin-3-yl)carbamoyl)cyclohexane-1-carboxylic acid] | 50 to 250
12 | Cc1nc(-c2onc(C)c2CNC(=O)O[C@H](C)c2ccccc2)ccc1NC(=O)[C@H]1CCCC[C@@H]1C(=O)O [Compound 35, (1S,2S)-2-((2-methyl-6-(3-methyl-4-(((((R)-1-phenylethoxy)carbonyl)amino)methyl)isoxazol-5-yl)pyridin-3-yl)carbamoyl)cyclohexane-1-carboxylic acid] | 250 to 600
13 | Cc1nc(-c2cnn(C)c2COC(=O)N(C)CCC(C)C)ccc1NC(=O)[C@H]1CCCC[C@@H]1C(=O)O [Compound 21, (1S,2S)-2-((6-(5-(((isopentyl(methyl)carbamoyl)oxy)methyl)-1-methyl-1H-pyrazol-4-yl)-2-methylpyridin-3-yl)carbamoyl)cyclohexane-1-carboxylic acid] | 250 to 600
14 | Cc1nc(-c2onc(C)c2NS(=O)(=O)CCc2ccc(F)cc2)ccc1NC(=O)[C@H]1CCCC[C@@H]1C(=O)O [Compound 27] | 50 to 250
15 | Cc1noc(-c2ccc(OC[C@H]3CCCC[C@@H]3C(=O)O)cn2)c1Nc1cncc(OCC(F)(F)F)n1 [Compound 49, (1S,2S)-2-(((6-(3-methyl-4-((6-(2,2,2-trifluoroethoxy)pyrazin-2-yl)amino)isoxazol-5-yl)pyridin-3-yl)oxy)methyl)cyclohexane-1-carboxylic acid] | < 50
16 | Cc1nc(-c2onc(C)c2Nc2cncc(C3CCCC3)n2)ccc1OC[C@H]1CCCC[C@@H]1C(=O)O [Compound 46, (1S,2S)-2-(((6-(4-((6-cyclopentylpyrazin-2-yl)amino)-3-methylisoxazol-5-yl)-2-methylpyridin-3-yl)oxy)methyl)cyclohexane-1-carboxylic acid] | < 50

Further lines, results first:

Row | IC50 [nM] | Compound
17 | < 50 | Cc1nc(-c2onc(C)c2CNc2nccc(-c3cccc4ccccc34)n2)ccc1NC(=O)[C@H]1CCCC[C@@H]1C(=O)O [Compound 40, (1S,2S)-2-((2-methyl-6-(3-methyl-4-(((4-(naphthalen-1-yl)pyrimidin-2-yl)amino)methyl)isoxazol-5-yl)pyridin-3-yl)carbamoyl)cyclohexane-1-carboxylic acid]
18 | < 50 | Cc1nc(-c2onc(C)c2COC(=O)N(C)C2CCCC2)ccc1OC[C@H]1CCCC[C@@H]1C(=O)O [Compound 74, (1S,2S)-2-(((6-(4-(((cyclopentyl(methyl)carbamoyl)oxy)methyl)-3-methylisoxazol-5-yl)-2-methylpyridin-3-yl)oxy)methyl)cyclohexane-1-carboxylic acid]
19 | < 50 | Cc1nc(-c2onc(C)c2NS(=O)(=O)CCCc2ccccc2)ccc1NC(=O)[C@H]1CCCC[C@@H]1C(=O)O [Compound 26, (1S,2S)-2-((2-methyl-6-(3-methyl-4-((3-phenylpropyl)sulfonamido)isoxazol-5-yl)pyridin-3-yl)carbamoyl)cyclohexane-1-carboxylic acid]
20 | < 50 | Cc1nc(-c2nnn(C)c2CNC(=O)OCc2ccccc2)ccc1OC[C@H]1CCCC[C@@H]1C(=O)O [Compound 62, (1S,2S)-2-(((6-(5-((((benzyloxy)carbonyl)amino)methyl)-1-methyl-1H-1,2,3-triazol-4-yl)-2-methylpyridin-3-yl)oxy)methyl)cyclohexane-1-carboxylic acid]
21 | < 50 | Cc1nc(-c2nnn(C)c2CNc2nccc(-c3cnccn3)n2)ccc1OC[C@H]1CCCC[C@@H]1C(=O)O [Compound 65, (1S,2S)-2-(((2-methyl-6-(1-methyl-5-(((4-(pyrazin-2-yl)pyrimidin-2-yl)amino)methyl)-1H-1,2,3-triazol-4-yl)pyridin-3-yl)oxy)methyl)cyclohexane-1-carboxylic acid]
22 | < 50 | Cc1nc(-c2onc(C)c2CNc2nccc(-c3ccco3)n2)ccc1NC(=O)[C@H]1CCCC[C@@H]1C(=O)O [Compound 41, (1S,2S)-2-((6-(4-(((4-(furan-2-yl)pyrimidin-2-yl)amino)methyl)-3-methylisoxazol-5-yl)-2-methylpyridin-3-yl)carbamoyl)cyclohexane-1-carboxylic acid]
23 | < 50 | Cc1nc(-c2onc(C)c2Nc2cncc(C3=CCCCC3)n2)ccc1NC(=O)[C@H]1CCCC[C@@H]1C(=O)O [Compound 10, (1S,2S)-2-((6-(4-((6-(cyclohex-1-en-1-yl)pyrazin-2-yl)amino)-3-methylisoxazol-5-yl)-2-methylpyridin-3-yl)carbamoyl)cyclohexane-1-carboxylic acid]
24 | < 50 | Cc1nc(-c2nnn(C)c2Nc2cncc(OC(C)C)n2)ccc1OC[C@H]1CCCC[C@@H]1C(=O)O [Compound 71, (1S,2S)-2-(((6-(5-((6-isopropoxypyrazin-2-yl)amino)-1-methyl-1H-1,2,3-triazol-4-yl)-2-methylpyridin-3-yl)oxy)methyl)cyclohexane-1-carboxylic acid]
25 | < 50 | Cc1nc(-c2onc(C)c2NS(=O)(=O)CCc2ccc(Cl)cc2)ccc1NC(=O)[C@H]1CCCC[C@@H]1C(=O)O [Compound 28, (1S,2S)-2-((6-(4-((2-(4-chlorophenyl)ethyl)sulfonamido)-3-methylisoxazol-5-yl)-2-methylpyridin-3-yl)carbamoyl)cyclohexane-1-carboxylic acid]
